The target in one data set is T1, human VR1 receptors (Homo sapiens, UniProt Q8NER1).
T1 construct: host or cells: cells highly expressing human VR1; cell type not specified
Kind of data set: Human VR1 antagonist assay (Ca2+ imaging). Type of data set: cell-based. The note with it: cells expressing human VR1, fura-2 Ca2+ imaging, FDSS 6000; capsaicin (300 nM) or acid (pH5.8) stimulation, table does not say which. The source says: Human VR1 Antagonist Assay
VR1 antagonistic activity can be determined by the Ca^2+ imaging assay using human VR1 highly expressing cells. The cells that highly express human VR1 receptors are obtainable from several different conventional methods. The one standard method is cloning from human Dorsal Root Ganglion (DRG) or kidney according to the methods such as described in the journal article; Nature, 389, pp 816-824, 1997. Alternatively VR1 receptors highly expressing human keratinocytes are also known and published in the journal article (Biochemical and Biophysical Research Communications, 291, pp 124-129, 2002). […] Further more, the method to up regulate human VR1 gene, which is usually a silent gene or don't produce detectable level of VR1 receptors, is also available to obtain propriety cells. Such genetic modification method was described in detail; Nat. Biotechnol., 19, pp 440-445, 2001.
The cells that express human VR1 receptors were maintained in culture flask at 37° C. in an environment containing 5% CO2 until use in the assay. The intracellular Ca^2+ imaging assay to determine VR1 antagonistic activities were done by following procedures.
The culture medium was removed from the flask and fura-2/AM fluorescent calcium indicator was added to the flask at a concentration of 5 μM in the medium. The flask was placed in CO2 incubator and incubated for 1 hour. Then the cells expressing the human VR1 receptors were detached from the flask follow by washing with phosphate buffer saline, PBS(−) and re-suspended in assay buffer. The 80 μl of aliquot of cell suspension (3.75×10^5 cells/ml) was added to the assay plate and the cells were spun down by centrifuge (950 rpm, 20° C., 3 minutes).
Capsaicin Stimulation Assay:
The capsaicin-induced changes in the intracellular calcium concentration were monitored using FDSS 6000 (Hamamatsu Photonics, Japan), a fluorometric imaging system. The cell suspension in Krebs-Ringer HEPES (KRH) buffer (115 mM NaCl, 5.4 mM KCl, 1 mM MgSO4, 1.8 mM CaCl2, 11 mM D-Glucose, 25 mM HEPES, 0.96 mM Na2HPO4, pH 7.3) were pre-incubated with varying concentrations of the test compounds or KRH buffer (buffer control) for 15 minutes at room temperature under the dark condition. Then capsaicin solution, which gives 300 nM in assay mixture, was automatically added to the assay plate by the FDSS 6000.
The Acid-induced changes in the intracellular calcium concentration were monitored using FDSS 6000 (Hamamatsu Photonics, Japan), a fluorometric imaging system. The cell suspension in resting buffer (HBSS supplemented with 10 mM HEPES, pH 7.4) were pre-incubated with varying concentrations of the test compounds or resting buffer (buffer control) for 15 minutes at room temperature under the dark condition. The cells were automatically added the stimulating solution (HBSS supplemented with MES, final assay buffer pH5.8) by the FDSS 6000.
Determination of Antagonist Activity
The monitoring of the changes in the fluorescence signals (λex=340 nm/380 nm, λem=510-520 nm) was initiated at 1 minute prior to the addition of capsaicin solution or acidic buffer and continued for 5 minute.

The nature of data set [1]: Half-life in Human Liver Microsomes (HLM). The following applies: pH 7.4; for half-life at 1 μM: human, human liver microsomes (HL101).
Experimental: Test compounds (1 μM) were incubated with 3.3 mM MgCl2 and 0.78 mg/mL HLM (HL101) in 100 mM potassium phosphate buffer (pH 7.4) at 37° C. on the 96-deep well plate. The reaction mixture was split into two groups, a non-P450 and a P450 group. NADPH was only added to the reaction mixture of the P450 group. An aliquot of samples of P450 group was collected at 0, 10, 30, and 60 min time point, where 0 min time point indicated the time when NADPH was added into the reaction mixture of P450 group. An aliquot of samples of non-P450 group was collected at −10 and 65 min time point. Collected aliquots were extracted with acetonitrile solution containing an internal standard. The precipitated protein was spun down in centrifuge (2000 rpm, 15 min). The compound concentration in supernatant was measured by LC/MS/MS system.
The half-life value was obtained by plotting the natural logarithm of the peak area ratio of compounds/internal standard versus time. The slope of the line of best fit through the points yields the rate of metabolism (k).

Where a name gives a salt, the structure may show the parent alone.

For orientation: IC50 means the concentration needed to halve the response being measured. The low end stands for inhibition by little substance, the high end for a need for much substance. For orientation: half-life means the time needed for the level to fall by half in the phase considered.

T1 sequence (Q8NER1 whole entry): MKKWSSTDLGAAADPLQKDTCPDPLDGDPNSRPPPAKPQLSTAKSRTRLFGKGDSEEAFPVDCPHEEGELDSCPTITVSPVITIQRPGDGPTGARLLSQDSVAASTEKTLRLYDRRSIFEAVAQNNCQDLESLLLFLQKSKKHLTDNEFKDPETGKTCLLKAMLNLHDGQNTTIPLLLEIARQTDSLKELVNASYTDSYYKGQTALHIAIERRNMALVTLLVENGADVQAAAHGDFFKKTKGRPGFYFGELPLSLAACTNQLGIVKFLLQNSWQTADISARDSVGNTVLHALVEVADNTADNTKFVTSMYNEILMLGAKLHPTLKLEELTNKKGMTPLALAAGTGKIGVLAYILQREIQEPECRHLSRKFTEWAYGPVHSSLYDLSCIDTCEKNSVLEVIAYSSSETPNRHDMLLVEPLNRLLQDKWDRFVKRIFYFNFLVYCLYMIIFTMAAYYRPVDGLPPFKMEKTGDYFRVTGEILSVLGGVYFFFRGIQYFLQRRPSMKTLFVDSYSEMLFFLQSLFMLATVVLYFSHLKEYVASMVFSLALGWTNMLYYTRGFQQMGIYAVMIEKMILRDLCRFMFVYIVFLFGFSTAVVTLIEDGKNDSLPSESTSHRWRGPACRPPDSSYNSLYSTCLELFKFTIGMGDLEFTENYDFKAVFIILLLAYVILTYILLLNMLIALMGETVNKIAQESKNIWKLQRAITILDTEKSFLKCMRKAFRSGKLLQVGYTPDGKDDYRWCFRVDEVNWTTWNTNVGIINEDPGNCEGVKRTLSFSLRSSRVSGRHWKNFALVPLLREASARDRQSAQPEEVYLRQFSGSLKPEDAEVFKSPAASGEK

`CC[C@@H](NC(=O)[C@H]1C[C@]1(C)c1cc(F)c(C(C)(C)C)c(F)c1)c1ccc(NS(C)(=O)=O)cc1` [Example 90, 2-(4-tert-Butyl-3,5-difluorophenyl)-2-methyl-N-((1R)-1-{4-[(methylsulfonyl)amino]phenyl}propyl)cyclopropanecarboxamide] returned an IC50 at human VR1 receptors of 86.3 nM.
Take `CCc1cc([C@@H](C)NC(=O)[C@H]2C[C@]2(C)c2ccc(C(F)(F)F)cc2)ccc1NS(C)(=O)=O` [Example 32, (1S,2S)-N-((1R)-1-{3-Ethyl-4-[(methylsulfonyl)amino]phenyl}ethyl)-2-methyl-2-[4-(trifluoromethyl)phenyl]cyclopropanecarboxamide]: the IC50 at human VR1 receptors amounted to 0.934 nM. For the same compound, the half-life at 1 μM in data set [1] came out at 10.8 min.
Compound `Cc1cc([C@@H](C)NC(=O)C2CC2(C)c2ccc(C(C)(C)C)nc2)ccc1NS(C)(=O)=O` (stereo partly drawn) [Example 10, 2-(6-tert-Butylpyridin-3-yl)-2-methyl-N-((1R)-1-{3-methyl-4-[(methylsulfonyl)amino]phenyl}ethyl)cyclopropanecarboxamide] gave an IC50 against human VR1 receptors of 3.59 nM. The same compound came in with a half-life at 1 μM in data set [1] of 22 min.
For `C[C@@H](NC(=O)[C@H]1C[C@]1(C)c1ccc(C(F)(F)F)cc1)c1ccc(NS(C)(=O)=O)c(CO)c1` [Example 22, (1S,2S)-N-((1R)-1-{3-(Hydroxymethyl)-4-[(methylsulfonyl)amino]phenyl}ethyl)-2-methyl-2-[4 (trifluoromethyl)phenyl]cyclopropanecarboxamide], in that order: 1.2 nM and 37 min.
In data set [1], `C[C@@H](NC(=O)C1C[C@@H]1c1ccc(C(C)(C)C)c(F)c1)c1ccc(NS(C)(=O)=O)c(CO)c1` (stereo partly drawn) [Example 36, 2-[4-tert-Butyl-3-fluorophenyl]-N-((1R)-1-{3-(hydroxymethyl)-4-[(methylsulfonyl)amino]phenyl}ethyl)cyclopropanecarboxamide] yielded a half-life at 1 μM of 23 min.
At human VR1 receptors, `Cc1cc([C@@H](C)NC(=O)C2CC2(C)c2cc(F)c(C(C)(C)C)c(F)c2)c(F)cc1NS(C)(=O)=O` (stereo partly drawn) [Example 78, 2-(4-tert-Butyl-3,5-difluorophenyl)-N-((1R)-1-{2-fluoro-5-methyl-4-[(methylsulfonyl)amino]phenyl}ethyl)-2-methylcyclopropanecarboxamide] came in with an IC50 of less than 3 nM.
`Cc1cc([C@@H](C)NC(=O)[C@H]2C[C@]2(C)c2ccc(C(C)(C)C(F)(F)F)cc2)ncc1NS(C)(=O)=O` [Example 37, 2-Methyl-N-((1R)-1-{4-methyl-5-[(methylsulfonyl)amino]pyridin-2-yl}ethyl)-2-[4-(2,2,2-trifluoro-1,1-dimethylethyl)phenyl]cyclopropanecarboxamide] gave an IC50 against human VR1 receptors of 197 nM. Also, in data set [1], the half-life at 1 μM came out at 41 min.
For `CC[C@@H](NC(=O)[C@H]1C[C@]1(C)c1ccc(C(F)(F)F)cc1)c1ccc(NS(C)(=O)=O)cc1` [Example 31, (1S,2S)-2-Methyl-N-((1R)-1-{4-[(methylsulfonyl)amino]phenyl}propyl)-2-[4-(trifluoromethyl)phenyl]cyclopropanecarboxamide], in that order: 192 nM and more than 120 min.
As for `Cc1cc([C@@H](C)NC(=O)C2CC2(C)c2ccc(C(C)(C)O)cc2)ccc1NS(C)(=O)=O` (stereo partly drawn) [Example 3, 2-[4-(1-Hydroxy-1-methylethyl)phenyl]-2-methyl-N-((1R)-1-{3-methyl-4-[(methylsulfonyl)amino]phenyl}ethyl)cyclopropanecarboxamide], the IC50 against human VR1 receptors is 885 nM.
Take `Cc1cc([C@@H](C)NC(=O)C2CC2(C)c2ccc(C(C)(C)C)nc2)ccc1NS(C)(=O)=O` (stereo partly drawn) [Example 11, 2-(6-tert-Butylpyridin-3-yl)-2-methyl-N-((1R)-1-{3-methyl-4-[(methylsulfonyl)amino]phenyl}ethyl)cyclopropanecarboxamide monohydrochloride]: in data set [1] (1 μM compound, 0.78 mg/mL HLM, 37° C., NADPH), the “T1/2” value turned out to be 22 min.
On human VR1 receptors, `C[C@@H](NC(=O)[C@H]1C[C@]1(C)c1ccc(C(F)(F)F)cc1)c1ccc(NS(C)(=O)=O)c(CCO)c1` [Example 86, (1S,2S)-N-((1R)-1-{3-(2-Hydroxyethyl)-4-[(methylsulfonyl)amino]phenyl}ethyl)-2-methyl-2-[4-(trifluoromethyl)phenyl]cyclopropanecarboxamide] gave an IC50 of 4.8 nM. This lies in the single-digit nanomolar range.
Same read-out and setting: for `Oc1cc2c(cc1O)CN(C(=S)NCCc1ccc(Cl)cc1)CCC2` [Capsazepine, reference compound] the value was 237 to 455 nM.
The same measure, in the same setting: for `CCc1nc([C@@H](C)NC(=O)[C@H]2C[C@]2(C)c2ccc(C(C)(C)C(F)(F)F)cc2)ccc1NS(C)(=O)=O` [Example 35, N-((1R)-1-{6-Ethyl-5-[(methylsulfonyl)amino]pyridin-2-yl}ethyl)-2-methyl-2-[4-(2,2,2-trifluoro-1,1-dimethylethyl)phenyl]cyclopropanecarboxamide] the value was 156 nM.
`CCc1nc([C@@H](C)NC(=O)C2C[C@]2(C)c2ccc(C(C)(C)C(F)(F)F)cc2)ccc1NS(C)(=O)=O` (stereo partly drawn) [Example 35, N-((1R)-1-{6-Ethyl-5-[(methylsulfonyl)amino]pyridin-2-yl}ethyl)-2-methyl-2-[4-(2,2,2-trifluoro-1,1-dimethylethyl)phenyl]cyclopropanecarboxamide]: the half-life at 1 μM in data set [1] was 25 min.
Regarding `CC[C@@H](NC(=O)[C@H]1C[C@]1(C)c1cc(F)c(C(C)(C)C)c(F)c1)c1ccc(NS(C)(=O)=O)c(C)c1` [Example 91, 2-(4-tert-butyl-3,5-difluorophenyl)-2-methyl-N-((1R)-1-{3-methyl-4-[(methylsulfonyl)amino]phenyl}propyl)cyclopropanecarboxamide], the concentration for half-maximal inhibition (IC50) against human VR1 receptors was less than 3 nM.
Consider `C[C@@H](NC(=O)C1CC1c1ccc(C(C)(C)C)nc1)c1ccc(NS(C)(=O)=O)c(F)c1` (stereo partly drawn) [Example 52, 2-[6-tert-Butylpyridin-3-yl]-N-((1R)-1-{3-fluoro-4-[(methylsulfonyl)amino]phenyl}ethyl)cyclopropanecarboxamide], for which it took 1150 nM to reach half-maximal inhibition against human VR1 receptors (IC50). In other words, the single-digit micromolar range.
The same measure, in the same setting: the value for `CCC1(c2ccc(C(F)(F)F)cc2)CC1C(=O)N[C@H](C)c1ccc(NS(C)(=O)=O)c(F)c1` (stereo partly drawn) [Example 89, 2-Ethyl-N-((1R)-1-{3-fluoro-4-[(methylsulfonyl)amino]phenyl}ethyl)-2-[4-(trifluoromethyl)phenyl]cyclopropanecarboxamide] was less than 3 nM.
On the same count and under the same terms, for `Cc1cc([C@@H](C)NC(=O)C2CC2c2ccc(C(C)(C)C)cc2-c2ccncc2)ccc1NS(C)(=O)=O` (stereo partly drawn) [Example 65, 2-[4-tert-Butyl-2-pyridin-4-ylphenyl]-N-((1R)-1-{3-methyl-4-[(methylsulfonyl)amino]phenyl}ethyl)cyclopropanecarboxamide] the value was 1040 nM.
Same read-out and setting: the value for `C[C@@H](NC(=O)[C@H]1C[C@@H]1c1ccc(C(C)(C)C)c(F)c1)c1ccc(NS(C)(=O)=O)c(CO)c1` [Example 36, 2-[4-tert-Butyl-3-fluorophenyl]-N-((1R)-1-{3-(hydroxymethyl)-4-[(methylsulfonyl)amino]phenyl}ethyl)cyclopropanecarboxamide] was 19 nM; that for `CCc1cc([C@@H](CC)NC(=O)[C@H]2C[C@]2(C)c2ccc(C(F)(F)F)cc2)ccc1NS(C)(=O)=O` [Example 87, (1S,2S)-N-((1R)-1-{3-ethyl-4-[(methylsulfonyl)amino]phenyl}propyl)-2-methyl-2-[4-(trifluoromethyl)phenyl]cyclopropanecarboxamide] was 19.9 nM.
In the case of `COCC(C)(C)c1ccc(C2(C)CC2C(=O)N[C@H](C)c2ccc(NS(C)(=O)=O)c(C)c2)cc1F` (stereo partly drawn) [Example 85, 2-{4-[1,1-Dimethyl-2-(methyloxy)ethyl]-3-fluorophenyl}-2-methyl-N-((1R)-1-{3-methyl-4-[(methylsulfonyl)amino]phenyl}ethyl)cyclopropanecarboxamide], on human VR1 receptors, half-maximal inhibition (IC50) was put at 52.7 nM.
Still for that read-out and setting: the value for `CCC1(c2ccc(C(F)(F)F)cc2)CC1C(=O)N[C@H](C)c1ccc(NS(C)(=O)=O)c(C)c1` (stereo partly drawn) [Example 88, 2-Ethyl-N-((1R)-1-{3-methyl-4-[(methylsulfonyl)amino]phenyl}ethyl)-2-[4-(trifluoromethyl)phenyl]cyclopropanecarboxamide] was less than 3 nM.

Values taken from patent US7915448B2, “Substituted sulfonylaminoarylmethyl cyclopropanecarboxamide as VR1 receptor antagonists” (Pfizer Inc., priority 2005, dated 2011).
